Test system: PKCε
Assay: PKCε translocation to the plasma membrane in cultured dorsal root ganglia neurons
Type: cell-based, rat
Settings: idazoxan pre-applied 10 minutes at 10 and 100 μM, toward 1 μM CR4056
Method: FIG. 1 reports the time-course (A) and washout (B) of CR4056 effect on PKCF translocation induced by bradykinin (BK 1 μM). In Panel A, open symbols represent the percentage of neurons positive for PKCF translocation following BK stimulation in absence of the drug. Filled symbols represent neurons pre-incubated with CR4056 ([…]) for different times before the stimulation for 30 seconds with BK+CR4056. The first filled symbol indicates the effect of CR4056 co-incubated for 30 seconds with BK, the second filled symbol indicates 10 seconds of pre-incubation of CR4056, and the last indicates 24 hours of pre-incubation of CR4056. […] In Panel B, BK-induced PKCF translocation was evaluated before (open symbol) and after pre-incubation of CR4056 ([…]) at different time intervals (from 10 minutes to 8 hours) (filled symbols). The first datapoint was obtained at the end of the 10 minute pre-incubation, when CR4056 was still present. The subsequent datapoints were obtained after extensive rinsing to ensure complete removal of the drug from extracellular solution (n=3).
Rat dorsal root ganglia (DRGs) were obtained from freshly isolated spines after carefully removing nerve trunks and connective tissue. Larger ganglia, chopped into 2-4 smaller pieces were then incubated for 1 hour at 37° C. in 0.125% collagenase (Worthington, Freehold, NJ) dissolved in Dulbecco's modified Eagle's medium (DMEM) containing 10% fetal bovine serum (FBS) plus 1% penicillin/streptomycin and 1% L-glutamine (Euroclone, Milan, Italy). After enzymatic digestion, ganglia were mechanically dissociated and neurons plated at a density such that neurons would cover about 30% of coverslip surface in a single layer, in petri dishes containing wells with a glass bottom coverslip (pre-coated with 10 μg/mL poly-L-lysine and 20 µg/ml laminin, Sigma-Aldrich, Milan, Italy). Cells were incubated for 2-3 days in DMEM as described above, plus 1.5 μg/ml cytosine 1-d-arabinofuranoside (ARA-C, Sigma-Aldrich) to slow down proliferation of non neuronal cells, and 100 ng/ml nerve growth factor (NGF, Sigma-Aldrich) to increase cell health and the and the expression of receptors which are linked to PKCF translocation upon stimulation. Activation of membrane receptors coupled to phospholipase C pathway leads to PKCF translocation from cytoplasm to the plasma membrane. In order to study PKCε behaviour a well established technique was employed (Vellani V, Neuroscience, 2006). […] CR4056 was pre-applied in the culture medium for 10 min or co-applied with the stimulus. After fixation, cells were permeabilized with 0.2% Triton X-100 (Sigma-Aldrich, Milan, Italy) and exposed overnight to a rabbit polyclonal antibody highly specific for PKCF. After extensive rinsing, PKCF was visualized with a secondary antibody (1:200 dilution Alexa Fluor 488 goat anti-rabbit, Thermo Fisher Scientific, Monza, Italy) applied for 2-4 hours at room temperature in the dark Cells showing PKCF translocation were detected with a confocal microscope (Leica SP2, Leica, Switzerland) by measuring fluorescence intensity along a line drawn through the cytoplasm and the membrane, thus avoiding the nucleus. Neurons in which fluorescence intensity at the plasma membrane throughout the cell was 1.5-fold or higher than the mean cytoplasmic intensity were considered positive.

## c1ccc2c(c1)OCC(C1=NCCN1)O2 (stereo not shown) [Idazoxan, idazoxan, reference compound]
  Effect of idazoxan on the block of PKCF translocation by CR4056: completely ineffective
